Literature values, collected in US9636301B2, “In vitro release assay for liposome encapsulated vincristine” (ARBUTUS BIOPHARMA CORPORATION, priority 2012, dated 2017).

Conditions: water

In the case of “22-oxovincaleukoblastine [Vincristine sulfate]”, the solubility is listed as “soluble in water”.
